In US20210085585A1, “A PERSONAL CARE COMPOSITION” (Conopco, Inc., d/b/a UNILEVER, priority 2017, published 2021) one finds inhibition data, which are given here for 2 compounds.

This assay deals with co-cultures of HaCaT keratinocytes and neonatal primary human epidermal melanocytes. Briefly: Melanin content assay (cellular melanin content in keratinocyte-melanocyte co-cultures). The following applies: 72 h treatment, average % reduction in cellular melanin content; for inhibition at 10000 µM: single active at 10 mM. It counts as cell-based. On the procedure:
Neonatal primary human epidermal melanocytes were sourced from Life Technologies. Melanocytes were maintained in Medium 254 supplemented with Human Melanocyte Growth Supplement-2 (MGM).
HaCaT keratinocytes were maintained in DMEM medium containing 10% heat inactivated foetal bovine serum. All media were also supplemented with 10 U/mL penicillin G and 0.1 mg/mL streptomycin sulphate. Both cell types were maintained at 37° C. in a humidified incubator with 5% CO2 atmosphere.
Maintenance and sub-culturing of cells were carried out as per the manufacturer's instructions. For setup of co-cultures, HaCaT keratinocytes and melanocytes, each 40,000 cells were mixed (1:1 ratio) in 1 mL of a 1:1 mix of MGM:GM (KGM: EpiLife Medium supplemented with Human Keratinocyte Growth Supplement) and seeded as such per well, in 12 well Nunc plates.
Actives were prepared in media and test concentrations were added to cells along with relevant controls 24 h post seeding. After 72 h of active treatment, cell viability (using calcein method) and measurement of cellular melanin content was determined as described below.
After calcein fluorescence readings were obtained, cells were drained and fresh 0.15 mL of 1N NaOH (in 10% DMSO) per well was added. Cells were lysed by resuspension and incubated (60° C. for 1 h). Then, 0.1 mL of this lysate was transferred to a fresh 384-well plate and OD was measured at 405 nm in a TECAN M1000 plate reader (estimate of relative melanin content).

Take `O=C(O)CCN1CCCCC1` [1PP, 1-piperidinepropionic acid]: the inhibition – broadly, the drop in the measured response relative to a control, in per cent – at 10000 µM is 0%. Further, for the setting “single active at 100 uM”, the inhibition at 100 µM worked out at 1%. Also, the inhibition at 1000 µM (single active at 1 mM) is -5%.

As for `NC(=O)c1cccnc1` [3-pyridinecarboxamide], the inhibition at 10000 µM came to 0%.
